Test results: US20230026856A1, “HETEROCYCLIC COMPOUNDS AND METHODS OF USE THEREOF” (SPARCBIO LLC, priority 2020, published 2023)

How the values were obtained:
[1] = target: T1, KRAS G12C protein (Homo sapiens, UniProt P01116, G12C); assay: Nucleotide exchange assay, Method III (TR-FRET, association of KRAS G12C with Raf-RBD, SOS1-mediated exchange); format: biochemical; conditions: overnight (18 hr) incubation with GDP-bound KRAS G12C
Description: Method III. Inhibition of SOS1-mediated exchange of GDP for GTP on the KRAS G12C protein was measured in a biochemical assay that monitors association of KRAS G12C protein with the Ras-binding domain of Raf (Raf-RBD), where the association is coupled to exchange of GDP to GTP on the KRAS G12C protein. The assay was performed at WuXi AppTec (Shanghai, China). Compounds were serially diluted in 3-fold dilutions to 11 concentrations and spotted into the wells of an assay plate in a total volume of 150 nL DMSO per well. A 2× enzyme mix was prepared by diluting GDP-bound, His-tagged KRAS G12C to 25 nM in assay buffer. 10 μL/well of 2× enzyme mix was added to all wells, and the plate was sealed and incubated overnight (18 hr) at 23° C. 4×SOS1/GDP and 4×SOS1/GTP were prepared in assay buffer. 5 μL/well of 4×SOS1/GDP mix was added to negative control wells, 5 μL/well of 4×SOS1/GTP mix was added to the remaining wells, and the plate was further incubated at 23° C. for 1 hr. Finally, FLAG-tagged Raf-RBD is added to the reaction mixture along with a pair of FRET donor- and acceptor-conjugated antibodies specific for the FLAG-tagged Raf-RBD and His-tagged KRAS G12C proteins. A 4× Raf-RBD/Tb-anti-FLAG/D2-anti-His mix was prepared in assay buffer, and 5 μL/well of the mix was added to all wells, followed by incubation at room temperature for 2 hr. The TR-FRET signals, which increase with association of KRAS G12C and Raf-RBD, were measured on a Perkin Elmer Envision 2104 plate reader, and data were analyzed by non-linear regression to obtain IC50 values for inhibition by compounds. Table 2 includes results of the assay of Method III. ‘+++’ indicates IC50 values ≤300 nM, ‘++’ indicates IC50 values between 300 nM-3 μM, and ‘+’ indicates IC50 values ≥3 μM.
Target sequence in this assay (P01116 1-188 isoform P01116-2 G12C): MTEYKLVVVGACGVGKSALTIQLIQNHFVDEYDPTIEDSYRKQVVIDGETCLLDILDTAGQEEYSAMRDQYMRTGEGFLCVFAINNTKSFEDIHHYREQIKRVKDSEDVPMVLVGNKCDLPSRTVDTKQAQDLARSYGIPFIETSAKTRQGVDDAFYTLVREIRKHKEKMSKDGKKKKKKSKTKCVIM

[2] = system: NCI-H358 cells; assay: 3D cell proliferation assay (Cell Titer-Glo 3D); format: cell-based; conditions: Homo sapiens, NCI-H358, 168 h, NCI-H358, 3D (ultra-low attachment); 7 days
Description: NCI-H358 cells (ATCC® CRL-5807™) were plated in a 384-well Black/Clear Round Bottom Ultra-Low Attachment Microplate (Corning) in medium (RPMI-1640+10% FBS) at a density of 1000 cells in 50 μL per well, then incubated overnight at 37° C. and 5% CO2. Cells were treated with test compounds at 9 concentrations within a specified concentration range (e.g., 0.5 nM-10 μM) for generation of dose response curves. Test compounds were prepared by 1:3 serial dilution in DMSO from a specified starting concentration (e.g., 20 μM, 2 μM or 0.2 μM) and then added to wells of the assay plate in a total volume of 150 nL DMSO. The cells were further incubated at 37° C. and 5% CO2 for 7 days. Cell viability was assessed by adding 40 μL of Cell Titer-Glo® 3D reagent (Cat. No.: G9683, Promega) to each well and reading luminescence after mixing and incubation of the samples. The IC50 value of each test compound was calculated with XLFit curve fitting software.

[3] = system: Phosphorylation of ERK in NCI-H358 cells; assay: pERK assay, Method II (homogeneous TR-FRET, phospho-ERK Thr202/Tyr204); format: cell-based; conditions: Homo sapiens, 4 hr compound treatment
Description: Method II. Phosphorylation of ERK was assessed by a homogeneous TR-FRET assay (Advanced phospho-ERK (Thr202/Tyr204) cellular kit; Cat. #64AERPEH, Cisbio). In brief, NCI-H358 cells were seeded in a 384-well culture plate at a density of 6000 cells in 40 μL medium/well and grown overnight at 37° C. and 5% CO2. Each test compound was dosed in duplicate in a 10-dose 3-fold titration starting at 10 μM or 2 μM. The culture plate was then incubated for 4 hr in the incubator. At the end of the compound treatment, the medium was removed, 35 μL of lysis buffer was added to each well, and the plate was agitated on a plate shaker for 40 mins at 4° C. An antibody cocktail of phospho-ERK1/2 Eu Cryptate antibody and Phospho-ERK1/2 d2 antibody was prepared by separately diluting the antibodies 20-fold with detection buffer and then mixing them together. 3.4 μL of antibody cocktail was dispensed to each well of an empty 384-well white ProxiPlus assay plate (Perkin Elmer), and the plate briefly centrifuged. 13.6 μL of cell lysate was then added to the antibody-containing wells, and the plate was briefly centrifuged and then incubated 2 hr at room temperature. The plate was read on a fluorescence plate reader (Envision2104, Perkin Elmer), with an excitation wavelength of 337 nm and emission wavelengths of 615 nm and 665 nm. The IC50 value of each test compound was calculated with XLFit curve fitting software. Results are shown in Table 6. ‘+++’ indicates IC50 values ≤300 nM, ‘++’ indicates IC50 values between 300 nM-3 μM, and ‘+’ indicates IC50 values ≥3 μM.

[4] = system: MIA PaCa-2; assay: Cell proliferation assay panel (Cell Titer-Glo), MIA PaCa-2; format: cell-based; conditions: Homo sapiens, MIA PaCa-2, 72 h
Description: (§1) Potency of compounds was determined in cell proliferation assays in a panel of cancer cell lines. Cells were seeded in 384-well plates (Corning, Cat. #3765) at specified densities in 40 μL of culture medium and incubated overnight at 37° C. in a 5% CO2 incubator (culture conditions). With a robotic dispenser, serially diluted test compounds were added in a volume of 20 nL DMSO to wells in the culture plate to achieve the final desired concentrations of test compounds, and the cells were further incubated in culture conditions for 72 hr. The assay was terminated by addition of 25 μL of Cell Titer-Glo reagent (Promega, Madison, Wis.) to each well. Contents were mixed, the plate was incubated for 10 min at room temperature and luminescence was measured. The IC50 value of each test compound was calculated with XLFit curve fitting software. Results are shown in Table 4. ‘+++’ indicates IC50 values ≤300 nM, ‘++’ indicates IC50 values between 300 nM-3 μM, and ‘+’ indicates IC50 values ≥3 μM.

[5] = system: NCI-H2122; assay: Cell proliferation assay panel (Cell Titer-Glo), NCI-H2122; format: cell-based; conditions: Homo sapiens, 72 hr
Description: as §1

[6] = system: NCI-H1373; assay: Cell proliferation assay panel (Cell Titer-Glo), NCI-H1373; format: cell-based; conditions: Homo sapiens, 72 hr
Description: as §1

[7] = system: SW1573; assay: Cell proliferation assay panel (Cell Titer-Glo), SW1573; format: cell-based; conditions: Homo sapiens, 72 hr
Description: as §1

[8] = system: NCI-H358; assay: Cell proliferation assay panel (Cell Titer-Glo), NCI-H358; format: cell-based; conditions: Homo sapiens, 72 hr
Description: as §1

[9] = system: NCI-H2030; assay: Cell proliferation assay panel (Cell Titer-Glo), NCI-H2030; format: cell-based; conditions: Homo sapiens, 72 hr
Description: as §1

[10] = system: A549; assay: Cell proliferation assay panel (Cell Titer-Glo), A549; format: cell-based; conditions: Homo sapiens, 72 hr
Description: as §1

[11] = system: KYSE-410; assay: Cell proliferation assay panel (Cell Titer-Glo), KYSE-410; format: cell-based; conditions: Homo sapiens, 72 hr
Description: as §1

[12] = target: T1, KRAS G12C protein; assay: Nucleotide exchange assay, Method I (BODIPY-GDP fluorescence, SOS1-mediated exchange of GDP for GTP); format: biochemical; conditions: 30 minutes incubation with KRAS G12C/BODIPY-GDP
Description: Method I. A biochemical assay to assess activity of test compounds in inhibiting SOS1-mediated exchange of GDP for GTP on the KRAS G12C protein was performed at Reaction Biology Corporation (Malvern, Pa., USA). In this assay, exchange of BODIPY-GDP to GTP results in the decrease in BODIPY-GDP fluorescence. Briefly, recombinant KRAS G12C protein (aa 2-169, prepared by Reaction Biology) was labelled with 5× excess of BODIPY-GDP. Excess BODIPY-GDP was separated from loaded protein using a gravity desalting column. Compounds were incubated with 0.15 μM KRAS G12C/BODIPY-GDP for 30 minutes. A mixture of GTP (25 μM) and SOS1 (70 nM; aa 564-1049, prepared by Reaction Biology) was added to the reaction to initiate the nucleotide exchange reaction. Reaction progress was monitored in real time (Ex/Em=(483/530)) in CLARIOstar (BMG LabTech). After signal normalization, the data were fitted using the “one phase exponential decay” model in GraphPad Prism and rate constants obtained. Rate constants were converted to % activity values which were fit to a 4-parameter sigmoidal dose-response curve in Prism to derive IC50 values for inhibition of exchange activity by test compounds.
Target sequence in this assay (P01116 2-169 isoform P01116-2 G12C): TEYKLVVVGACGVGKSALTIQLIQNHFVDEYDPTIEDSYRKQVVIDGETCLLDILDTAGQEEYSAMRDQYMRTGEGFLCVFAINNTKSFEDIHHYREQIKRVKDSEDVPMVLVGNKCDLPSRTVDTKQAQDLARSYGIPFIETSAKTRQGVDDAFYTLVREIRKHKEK

SMILES	IC50 [1] [nM]	IC50 [3] [nM]	IC50 [4] [nM]	other results
C=CC(=O)N1CCN(c2c(C(=O)NCC)c(=O)n(-c3c(C)ccnc3C(C)C)c3nc(-c4c(O)cccc4F)c(F)cc23)CC1 (single isomer, unassigned) [293 (Isomer A), 4-(4-acryloylpiperazin-1-yl)-N-ethyl-6-fluoro-7-(2-fluoro-6-hydroxyphenyl)-1-(2-isopropyl-4-methylpyridin-3-yl)-2-oxo-1,2-dihydro-1,8-naphthyridine-3-carboxamide]	≤ 300	300 to 3000	300 to 3000	IC50 [2]: ≤ 100 nM
C=CC(=O)N1CCN(c2c(C(=O)NC)c(=O)n(-c3c(C)ccnc3C(C)C)c3nc(-c4c(O)cccc4F)c(F)cc23)CC1 (single isomer, unassigned) [84 (Isomer B), 4-(4-acryloylpiperazin-1-yl)-6-fluoro-7-(2-fluoro-6-hydroxyphenyl)-1-(2-isopropyl-4-methylpyridin-3-yl)-N-methyl-2-oxo-1,2-dihydro-1,8-naphthyridine-3-carboxamide]			300 to 3000	IC50 [5]: ≥ 3000 nM; IC50 [6]: ≥ 3000 nM; IC50 [7]: ≥ 3000 nM; IC50 [8]: ≤ 300 nM; IC50 [9]: ≥ 3000 nM; IC50 [10]: ≥ 3000 nM; IC50 [11]: ≥ 3000 nM
C=CC(=O)N1CCC(n2c(=O)c(=O)n(-c3c(C)ccnc3C(C)C)c3nc(-c4c(O)cccc4F)c(F)cc32)CC1 (single isomer, unassigned) [1 (Isomer A), 1-(1-acryloylpiperidin-4-yl)-7-fluoro-6-(2-fluoro-6-hydroxyphenyl)-4-(2-isopropyl-4-methylpyridin-3-yl)-1,4-dihydropyrido[2,3-b]pyrazine-2,3-dione]	300 to 3000			IC50 [12]: 300 to 3000 nM
C=CC(=O)N1CCN(c2c(C(=O)NC)c(=O)n(-c3c(C)ccnc3C(C)C)c3nc(-c4cccc5sc(N)nc45)c(F)cc23)CC1 (single isomer, unassigned) [254 (Isomer A), 4-(4-acryloylpiperazin-1-yl)-7-(2-aminobenzo[d]thiazol-4-yl)-6-fluoro-1-(2-isopropyl-4-methylpyridin-3-yl)-N-methyl-2-oxo-1,2-dihydro-1,8-naphthyridine-3-carboxamide]	300 to 3000		≥ 3000	
C=CC(=O)N1CCN(c2c(S(C)(=O)=O)c(=O)n(-c3c(C)ccnc3C(C)C)c3c(F)c(-c4c(C)ccc5[nH]ncc45)c(Cl)cc23)CC1 (single isomer, unassigned) [187 (Isomer C), 4-(4-acryloylpiperazin-1-yl)-6-chloro-8-fluoro-1-(2-isopropyl-4-methylpyridin-3-yl)-7-(5-methyl-1H-indazol-4-yl)-3-(methylsulfonyl)quinolin-2(1H)-one]	≤ 300		300 to 3000	IC50 [2]: ≤ 100 nM
C=CC(=O)N1CCN(c2c(S(C)(=O)=O)c(=O)n(-c3c(C)ccnc3C(C)C)c3nc(-c4c(C)ccc5[nH]ncc45)c(F)cc23)CC1 (single isomer, unassigned) [124 (Isomer A), 4-(4-acryloylpiperazin-1-yl)-6-fluoro-1-(2-isopropyl-4-methylpyridin-3-yl)-7-(5-methyl-1H-indazol-4-yl)-3-(methylsulfonyl)-1,8-naphthyridin-2(1H)-one]	≤ 300	300 to 3000	300 to 3000	
C=CC(=O)N1CCN(c2c(C(=O)NC)c(=O)n(-c3c(C)ccnc3C(C)C)c3nc(-c4c(C)ccc5[nH]ncc45)c(F)cc23)CC1 (single isomer, unassigned) [116 (Isomer A), 4-(4-acryloylpiperazin-1-yl)-6-fluoro-1-(2-isopropyl-4-methylpyridin-3-yl)-N-methyl-7-(5-methyl-1H-indazol-4-yl)-2-oxo-1,2-dihydro-1,8-naphthyridine-3-carboxamide]	≤ 300		≥ 3000	
C=CC(=O)N1CCC(n2c(=O)c(=O)n(-c3c(C)ccnc3C(C)C)c3nc(-c4c(O)cccc4F)c(F)cc32)CC1 (single isomer, unassigned) [1 (Isomer B), 1-(1-acryloylpiperidin-4-yl)-7-fluoro-6-(2-fluoro-6-hydroxyphenyl)-4-(2-isopropyl-4-methylpyridin-3-yl)-1,4-dihydropyrido[2,3-b]pyrazine-2,3-dione]				IC50 [12]: ≥ 3000 nM
C=CC(=O)N1CCN(c2c(S(C)(=O)=O)c(=O)n(-c3c(C)ccnc3C(C)C)c3nc(-c4cccc5sc(N)nc45)c(F)cc23)CC1 (single isomer, unassigned) [250 (Isomer A), 4-(4-acryloylpiperazin-1-yl)-7-(2-aminobenzo[d]thiazol-4-yl)-6-fluoro-1-(2-isopropyl-4-methylpyridin-3-yl)-3-(methylsulfonyl)-1,8-naphthyridin-2(1H)-one]	≤ 300	≤ 300	300 to 3000	
